The results in this text go back to ChEMBL document CHEMBL1144606, “Immunomodulatory effects of two sapogenins 1 and 2 isolated from Luffa cylindrica in Balb/C mice” (Bioorg Med Chem Lett, 2007).

Calls of active or inactive are those of the source. The calls are words filed in the database; no cut-off is given here.

For data set [1], the system named is Mus musculus. The data set can be described thus: Immunostimulatory effect against SRBC-inducing plaque forming cells in BALB/c mouse assessed as antibody secreting B cells at 100 mg/kg, po relative to control. The format is functional, organism-based. On the set-up: dose 100 mg/kg.
Data set [2] deals with Mus musculus. Kind of data set: Immunostimulatory effect against SRBC-inducing plaque forming cells in BALB/c mouse assessed as antibody secreting B cells at 10 mg/kg, po relative to control. In kind it is functional, organism-based. On the set-up: dose 10 mg/kg.
For data set [3], the system named is Splenocyte. Kind of data set: Enhancement of ConA-stimulated blastogenic responsiveness in BALB/c mouse splenocytes at 10 mg/kg. In kind it is functional, organism-based. On the set-up: dose 10 mg/kg.
The subject of data set [4] is Mus musculus. Kind of data set: Increased phagocytic index in BALB/c mouse at 10 mg/kg. The format is organism-based. On the set-up: dose 10 mg/kg. Conditions: in vivo.
Data set [5] relates to Splenocyte. The data set can be described thus: Enhancement of LPS-stimulated blastogenic responsiveness in BALB/c mouse splenocytes at 100 mg/kg. The format is functional, organism-based. On the set-up: dose 100 mg/kg.
Data set [6] concerns Mus musculus. Kind of data set: Enhancement of ConA-Stimulated lymphocyte proliferation in BALB/c mouse at 100 mg/kg by MTT assay. In kind it is functional, organism-based. Further details: dose 100 mg/kg. A general note: Tetrazolium dyes change colour on reduction, which living cells bring about.
Data set [7] has as its system Splenocyte. The data set can be described thus: Enhancement of ConA-stimulated blastogenic responsiveness in BALB/c mouse splenocytes at 100 mg/kg. On the set-up: dose 100 mg/kg. In kind it is functional, organism-based.
Data set [8] has as its system Mus musculus. The data set can be described thus: Enhancement of ConA-Stimulated lymphocyte proliferation in BALB/c mouse at 10 mg/kg by MTT assay. The format is functional, organism-based. Further details: dose 10 mg/kg.
The subject of data set [9] is Mus musculus. Kind of data set: Enhancement of LPS-Stimulated of lymphocyte proliferation in BALB/c mouse at 100 mg/kg by MTT assay. The format is functional, organism-based. Further details: dose 100 mg/kg.
In data set [10] the test system is Mus musculus. Kind of data set: Enhancement of LPS-Stimulated lymphocyte proliferation in BALB/c mouse at 10 mg/kg by MTT assay. In kind it is functional, organism-based. On the set-up: dose 10 mg/kg.
Data set [11] has as its system Splenocyte. The data set can be described thus: Enhancement of LPS-stimulated blastogenic responsiveness in BALB/c mouse splenocytes at 10 mg/kg. The format is functional, organism-based. Further details: dose 10 mg/kg.
Data set [12] concerns Mus musculus. The data set can be described thus: Immunostimulatory effect against SRBC-induced hormonal response in BALB/c mouse assessed as antibody production at 10 m/kg. The format is functional, organism-based.
The subject of data set [13] is Mus musculus. The data set can be described thus: Immunostimulatory effect against SRBC-inducing hormoral response in BALB/c mouse assessed as antibody production at 100 mg/kg. In kind it is functional, organism-based. On the set-up: dose 100 mg/kg.

As for `CC1(C)CC[C@]2(C(=O)O)[C@H](O)C[C@]3(C)C(=CC[C@@H]4[C@@]5(C)CC[C@H](O)C(C)(C)[C@@H]5CC[C@]43C)[C@@H]2C1`, the result in the data set with Mus musculus [1], in the data set with Mus musculus [2], in the data set with Splenocyte [3], in the data set with Splenocyte [5], with Mus musculus [6] and in the data set with Splenocyte [7] was Active. Further, the result in the data set with Mus musculus [8] and in the data set with Mus musculus [9] was Active. The result in the data set on Mus musculus [4] was Active.
`CC1(C)CC[C@]2(C(=O)O)CC[C@]3(C)C(=CC[C@@H]4[C@@]5(C)CC[C@H](O)C(C)(C)[C@@H]5CC[C@]43C)[C@@H]2C1` [OLEANOLIC_ACID]: the outcome with Mus musculus [1], in the data set with Mus musculus [2], in the data set with Splenocyte [3], in the data set on Mus musculus [10], in the data set with Splenocyte [11] and in the data set with Mus musculus [6] was Active. Moreover, the result with Mus musculus [12], in the data set on Splenocyte [7] and with Mus musculus [8] was Active. Also, in the data set on Mus musculus [4], the result was Active. Further, in the data set on Mus musculus [13], the result was inactive.
